Experimental findings from patent publication US6894079B1, “Method for reducing free-radical induced injury” (priority 1998, dated 2005) are described below.

Assay [1] in a line: AAPH peroxyl-radical oxidation of linoleic acid/SDS micelles, malondialdehyde formation. The following applies: 2, 4, 20 and 50 mM AAPH; 5 ml emulsion plus 5 ml perflubron, room temperature (FIGS. 4A-D). As for the experimental part:
This embodiment illustrates the effect of perfluorocarbon on fatty acid oxidation in a non-biological system (fatty acid micelles). Linoleic acid micelles were prepared as follows: Linoleic acid (3 mM) was emulsified into phosphate buffered saline (PBS) using the detergent sodium dodecyl sulfate (SDS, 250 μM). Linoleic acid/SDS micelles in PBS were formed by agitation and sonication of the resulting emulsion. The emulsion (5 ml) was exposed to perfluorocarbon by the addition of perflubron (PFOB, 5 ml, available commercially) to the system. Emulsions not exposed to perflubron served as controls. The emulsion/PFOB system (PFOB exposed micelles) and the non-exposed micelles (control) were agitated (xyz axial shaker) at room temperature. […] The degree of oxidative injury to the linoleic acid/SDS micelles was assessed by measuring malondialdehyde concentrations in aliquots taken from the emulsion phase at different time intervals. […] Malondialdehyde was measured using the method of Esterbauer and Cheeseman (Meth. Enzymol. 1990; 186:407-421). […] Absorbance changes were measured using a spectrophotometer (Beckman DU 650, Beckman Instruments) at 586 nm, against standard curves of 1,1,3,3-tetramethoxypropane at the end of the incubation period. […]

Assay [2] has as its system Rat pulmonary artery endothelial cells (RPAECs). Put plainly: H2O2 oxidative stress to endothelial cell monolayers, DCFDA fluorescence (confocal imaging). It is filed as cell-based. On the procedure:
Rat pulmonary artery endothelial cells (RPAECs) were grown to confluence on optical grade culture dishes using standard technique. Cells were grown in Dulbecco's Modified Eagles Medium (high glucose) containing […], 0.8 M NaOH 10% serum (calf serum). Cells were incubated at 37° C. in 5% CO2, 95% relative humidity.
An oxidative stress indicator, dichlorofluorescein diacetate (DCFDA), was used to indicate the extent of injury to cells. DCFDA is a colorless substance that permeates through the cell membrane. Fresh DCFDA (5 uM) was prepared by solubilizing 2.4 mg DCFDA in 300 ul DMSO, then diluting the solution in […] Phosphate buffered saline (PBS), pH 7.4. […] Upon excitation by contact with free radicals, the dye DCFDA becomes fluorescent and the intensity of fluorescence is directly proportional to the degree of oxidative stress suffered by the cells. […]
Oxidative stress was initiated by the addition of the buffer containing 10 mM H2O2 in PBS to the cell monolayers. Oxidative stress to cells was measured by sequential imaging with a confocal laser microscope obtained at baseline and every 10 seconds for 120 seconds. The excitation filter was wet at 488 nm and the images were read at 515 nm. […]
Relative fluorescence of cell monolayers exposed to perflubron (open circles) and standard buffer (closed circles) are shown in FIG. 1. […] Data are expressed as mean+standard error of the mean. […]

`FC(F)(F)C(F)(F)C(F)(F)C(F)(F)C(F)(F)C(F)(F)C(F)(F)C(F)(F)Br` [PFOB, perfluorooctyl bromide]: in assay [1], the “oxidative damage to fatty acid micelles (malondialdehyde concentration)” value is “attenuates oxidative damage to fatty acid micelles”. Further, the “oxidative injury to cell monolayers” value in assay [2] (10 mM H2O2 in PBS, imaging every 10 seconds for 120 seconds, perflubron removed by aspiration or evaporation (FIGS. 1, 2 and 3)) is “attenuates oxidative injury to cell monolayers”. Further, the “DCFDA fluorescence (indicator of free radicals) in cell cultures” value in assay [2] (after 120 seconds of oxidative stress with 10 mM H2O2, cells pre-exposed 1 minute to 1 ml PFOB, then removed (C120, FIG. 2 and 3)) is given as “lack of fluorescence”.
